Series [1] can be described thus: Plasma stability, rat plasma. The format is in vitro ADME. As to conditions: 37° C., time points 0 minute, 1, 2 and 4 hours, LC-MS/MS, read-out: Rat plasma (T1/2 (h)) (converted). The protocol:
(§1) 1. Preparation of 50 mM Phosphate Buffer (50 mM Sodium Phosphate and 70 mM NaCl):
(§2) 5.750 g of Na2HPO4, 1.141 g of NaH2PO4 and 4.095 g of NaCl (Shanghai Titan) were weighed and dissolved in 1000 mL of ultrapure water and the pH was adjusted to 7.4. The prepared phosphate buffer was stored in the refrigerator at 4° C., valid for one week.
(§3) 2. Preparation of Compound Stock Solution:
(§4) 1) 5 mg/mL test compound: 5 mg of compound was weighed and dissolved in 1 mL of DMSO.
(§5) 2) 20 mM control: 2.728 mg of nococaine was dissolved in 0.5 mL of DMSO. 3.878 mg of fenfluramide was dissolved in 0.5 mL of DMSO (Amresco).
(§6) 3. Preparation of Experimental Plasma:
(§7) The frozen plasma (human: Shanghai ChemPartner, Rat, Mouse: Shanghai Xipuer-Beikai, Dog, Monkey: Suzhou Xishan Zhongke) was taken out from the −80° C. refrigerator, immediately placed in a 37° C. water bath, and thawn with gentle shaking. The thawed plasma was poured into a centrifuge tube, and centrifuged at 3000 rpm for 8 minutes. The supernatant was collected for the experiment. The pH of the plasma was measured with a pH meter (METTLER TOLEDO), and only the plasma with a pH between 7.4 and 8 was used for the experiment. The plasma was placed on an ice bath for later use.
4. Preparation of the Dosing Solution: […]

The nature of series [2]: Plasma stability, mouse plasma. Format: in vitro ADME. As to conditions: 37° C., 0-4 hours, LC-MS/MS, "Very long" = no significant degradation found in the test (4 hours). On the procedure: as §1, §2, §3, §4, §5, §6, §7
4. Preparation of the Dosing Solution:
1) 125 μg/mL test compound solution: 5 μL of 5 mg/mL test compound (see step 2) was added to 195 μL DMSO; 500 μM control solution: 20 mM control stock solution (see step 2) was added to 195 μL DMSO.
2) 0.5% BSA phosphate buffer solution: 0.05 g of BSA was added to 10 mL of phosphate buffer (see step 1).
3) 5 μg/mL test compound dosing solution: 40 μL of 125 μg/mL test compound solution was added to 960 μL of 0.5% BSA phosphate buffer solution, shaken and mixed evenly, and the dosing solution was placed in a 37° C. water bath and preheated for 5 minutes.
20 μM control dosing solution: 40 μL of 500 μM control solution was added to 960 μL of 0.5% BSA phosphate buffer solution, shaken and mixed evenly, and the dosing solution was placed in a 37° C. water bath and preheated for 5 minutes.
5. 10 μL of 5 μg/mL test compound and 20 μM control solution were added to the wells of the 96-well plate set at different time points (0 minute, 1 hour, 2 hours and 4 hours). The number of duplicate samples was 3.
6. 500 μL of ACN (IS) containing 5% FA was added to the wells set at 0 minute. 90 μL of plasma was then added thereto, mixed evenly, sealed with the film and stored at 4° C. (the number of duplicates was 3).
7. 90 μL of plasma was added to the wells set at 1 hour, 2 hours and 4 hours (the number of replicates was 3), followed by timing (the final concentration of the test compound was 500 ng/mL, and that of the control was 2 μM).
9. All samples (0 minutes, 1 hour, 2 hours, and 4 hours) at different time points on the 96-well plate were placed on a shaker (IKA, MTS 2/4) and shaken at 600 rpm for 60 minutes. The samples were then centrifuged for 15 minutes on a centrifuge machine (Thermo Multifuge×3R) at 5594×g.
10. 150 μL of the supernatant was taken out from the centrifuged sample and sent to LC-MS/MS for analysis (conventional peptide LC-MS/MS analysis).

Square brackets hold non-standard residues; d marks the D form. Peptide text beside a SMILES is read from it. * marks the point of attachment. Hydrocinnamoyl = O=C(CCc1ccccc1)*; Tic = O=C(O)[C@@H]1Cc2ccccc2CN1; NMeL = CN[C@@H](CC(C)C)C(=O)O

Consider `CC(C)C[C@H](NC(=O)[C@H](Cc1ccccc1)NC(=O)[C@H](N)Cc1ccc(O)cc1)C(=O)N1CCC[C@H]1C(=O)N[C@H](CO)C(=O)N[C@@H](CCC(N)=O)C(=O)N[C@@H](Cc1ccccc1)C(=O)N[C@H](C)C(=O)N1Cc2ccccc2C[C@H]1C(=O)N[C@@H](CO)C(=O)O` [YW-3, (D-Tyr)-Phe-Leu-Pro-(D-Ser)-Gln-Phe-(D-Ala)-Tic-Ser, reference compound] (H-[dY]FLP[dS]QF[dA][Tic]S-OH), for which the results for the half-life at 500 ng/mL in series [1] and in series [2] (read-out: Mouse plasma (T1/2 (h)) (converted)) were 11.7 h and 35.4 h, respectively.
Take `CC(C)C[C@@H](C(=O)N1CCC[C@H]1C(=O)N[C@H](CO)C(=O)N[C@@H](CCC(N)=O)C(=O)N[C@@H](Cc1ccccc1)C(=O)N[C@H](C)C(=O)N1Cc2ccccc2C[C@H]1C(=O)N[C@@H](CO)C(=O)O)N(C)C(=O)[C@H](Cc1ccccc1)NC(=O)[C@@H](Cc1ccc(O)cc1)NC(=O)CCc1ccccc1` [YW-111, 3-phenylpropanoyl-(D-Tyr)-Phe-(NMe-Leu)-Pro-(D-Ser)-Gln-Phe-(D-Ala)-Tic-Ser-OH] (Hydrocinnamoyl-[dY]F[NMeL]P[dS]QF[dA][Tic]S-OH): the half-life at 500 ng/mL in series [1] is over 71 h. Besides, the “Mouse plasma (T1/2 (h))” value in series [2] (500 ng/mL) is recorded as “Very long”.

For the origin of these results see patent US12129312B2, “Peptide compound, application thereof and composition containing same” (priority 2017, dated 2024).
